{"source": "patent US11685762B2", "about": "“Aqueous suspension compositions, formulations, and water dispersible dry compositions comprising 16alpha-bromo-3beta-hydroxy-5alpha-androstan-17-ketone and hydrates, derivatives, and analogs thereof” (SD Chem, Inc., priority 2019, dated 2023)", "key": {"[1]": {"test_system": "Entamoeba histolytica", "conditions": "hamsters; cited from earlier work"}, "[2]": {"test_system": "BALB/c male mice sensitized and challenged with OVA", "assay": "Mouse asthma model (OVA challenge, bronchioalveolar lavage cell count)", "type": "in vivo", "conditions": "0.2 mg/kg per day", "protocol": "In this experiment, the BEA formulation is prepared based present invention formulation (Formulation of Composition 1 in Example 1).\n18 BALB/c male mice, 8 weeks old are sensitized with two intraperitoneal (IP) administrations, 5 days apart, of 10 μg chicken egg ovalbumin (OVA, grade V; Sigma) emulsified in 1 mg of aluminum hydroxide (Thermo Scientific, Rockford, Ill., USA) in a total volume of 100 μl. Then, after one month mice are challenged via intratracheal (IT) administration of 0.75% OVA. BEA formulation is administered at 0.2 mg/kg dose in an injection volume of 0.1 mL in two different routes of administration (intratracheal and subcutaneous (SC)), one hour after the OVA challenge and one dose per day for up to 7 days. Then, animals are euthanized by exsanguination under pentobarbital anesthesia. The bronchioalveolar lavage (BAL) of the mice are used to determine the total counts of inflammatory cells. Control mice receive saline solution intraperitoneally (IP). All experiments are performed in accordance with INCMN Mexico City regulations. Two independent experiments are performed."}, "[3]": {"test_system": "Taenia crassiceps", "conditions": "mice, administration prior to infection with cysticerci; cited from earlier work"}, "[4]": {"test_system": "ICR mice with colitis induced by DSS", "assay": "DSS induced mouse colitis model", "type": "in vivo", "conditions": "for White blood cell count: Mean ± SD, n = 12; for Macrohage cell count: abdominal macrophages", "protocol": "Experimental animals: 72 ICR mice, male and female, 25-29 g body weight before starting the experiment.\nSubgrouping: The experimental animals are divided into 6 groups at random, 12 mice in each group: physiological saline group, high dose group (40 mg/kg), moderate dose group (20 mg/kg), low dose group (10 mg/kg) of BEA obtained in Formulation/Composition 1 of the present invention, Dexamethasone (0.1 mg/kg), DSS model group.\nModel replication: The experimental mice are […] 3% DSS and fed with water routinely for 7 days, the colitis model is duplicated.\nAdministration of drug: the mice are injected with the test drug on the same day when DSS are injected.\nExperimental animal management: the general physical condition, loose stools, and bloody stools are observed every day.\nThe fecal occult blood is tested 3 days after injected with drug. The blood tests are done on day 7. The macrophages are counted and their IL-6 and TNF-alpha are determined. Their inflammation and ulcer level are observed. The colon content is taken to smear, stain and then determined the G+/G−. The thymus, spleen, liver are taken to weight and calculate the organ index. Sections of colon are sent for pathological examination."}, "[5]": {"test_system": "Vk*MYC Mice", "assay": "Anti-myeloma activity in Vk*MYC mice (M-Spike)", "conditions": "15 mg/kg/day", "experimental": "3 Vk*MYC Mice are evaluated. […] The M-Spike value are assessed at day 7 and 14 respectively. […] The M-Spike value are assessed at day 7, 14 and 21 respectively."}}, "note": "Marks after values point to notes of the source that are not given here.", "data": [{"smiles": "C[C@]12CC[C@H](O)C[C@@H]1CC[C@@H]1[C@@H]2CC[C@]2(C)C(=O)[C@H](Br)C[C@@H]12", "note": "[BEA, 16alpha-bromo-3beta-hydroxy-5alpha-androstan-17-ketone]", "values": [{"measurement": "reduction on the development of amoebic liver abscesses", "setting": "[1]", "value": 20, "unit": "%"}, {"measurement": "Inflammatory Cell Number in bronchioalveolar lavage", "setting": "[2]; IT, Day 3", "value": "4.61 × 10^4"}, {"measurement": "Inflammatory Cell Number in bronchioalveolar lavage", "setting": "[2]; IT, Day 7", "value": "5.99 × 10^4"}, {"measurement": "Inflammatory Cell Number in bronchioalveolar lavage", "setting": "[2]; SC, Day 3", "value": "4.07 × 10^4"}, {"measurement": "Inflammatory Cell Number in bronchioalveolar lavage", "setting": "[2]; SC, Day 7", "value": "1.06 × 10^5"}, {"measurement": "reduction of parasite load compared with controls", "setting": "[3]", "value": 50, "unit": "%"}, {"measurement": "Final weight", "setting": "[4]; BEA 10 mg/kg", "value": "26.5 ± 2.6", "unit": "g"}, {"measurement": "IL-6/TNF-alpha", "setting": "[4]; BEA 10 mg/kg", "value": "9.5 ± 7.9"}, {"measurement": "IL-6 level", "setting": "[4]; BEA 10 mg/kg", "value": "551.7 ± 391.4", "unit": "pg/mL"}, {"measurement": "Spleen index", "setting": "[4]; BEA 10 mg/kg", "value": "5.7 ± 2.0", "unit": "mg/g"}, {"measurement": "TNFa level", "setting": "[4]; BEA 10 mg/kg", "value": "49.5 ± 23.2", "unit": "pg/mL"}, {"measurement": "The length of colon", "setting": "[4]; BEA 10 mg/kg", "value": "10.4 ± 1.0", "unit": "cm"}, {"measurement": "Thymus index", "setting": "[4]; BEA 10 mg/kg", "value": "2.7 ± 1.0", "unit": "mg/g"}, {"measurement": "Weight before fasting", "setting": "[4]; BEA 10 mg/kg", "value": "28.2 ± 2.8", "unit": "g"}, {"measurement": "number of animals with bloody stools", "setting": "[4]; BEA 10 mg/kg", "value": "5/12"}, {"measurement": "number of animals with fecal occult blood (3rd day)", "setting": "[4]; BEA 10 mg/kg", "value": "7/12"}, {"measurement": "White blood cell count", "setting": "[4]; BEA 10 mg/kg", "value": "5.9 ± 1.4 X10^9"}, {"measurement": "Macrohage cell count", "setting": "[4]; BEA 10 mg/kg", "value": "28.3 ± 8.9 X10^5"}, {"measurement": "Final weight", "setting": "[4]; BEA 20 mg/kg", "value": "25.7 ± 1.8", "unit": "g"}, {"measurement": "IL-6/TNF-alpha", "setting": "[4]; BEA 20 mg/kg", "value": "16.8 ± 8.0"}, {"measurement": "IL-6 level", "setting": "[4]; BEA 20 mg/kg", "value": "589.1 ± 227.1", "unit": "pg/mL"}, {"measurement": "Spleen index", "setting": "[4]; BEA 20 mg/kg", "value": "5.9 ± 1.0", "unit": "mg/g"}, {"measurement": "TNFa level", "setting": "[4]; BEA 20 mg/kg", "value": "49.1 ± 37.0", "unit": "pg/mL"}, {"measurement": "The length of colon", "setting": "[4]; BEA 20 mg/kg", "value": "10.5 ± 0.9", "unit": "cm"}, {"measurement": "Thymus index", "setting": "[4]; BEA 20 mg/kg", "value": "2.9 ± 0.7", "unit": "mg/g"}, {"measurement": "Weight before fasting", "setting": "[4]; BEA 20 mg/kg", "value": "27.7 ± 2.5", "unit": "g"}, {"measurement": "number of animals with bloody stools", "setting": "[4]; BEA 20 mg/kg", "value": "5/12"}, {"measurement": "number of animals with fecal occult blood (3rd day)", "setting": "[4]; BEA 20 mg/kg", "value": "7/12"}, {"measurement": "White blood cell count", "setting": "[4]; BEA 20 mg/kg", "value": "5.2 ± 1.5# X10^9"}, {"measurement": "Macrohage cell count", "setting": "[4]; BEA 20 mg/kg", "value": "32.3 ± 1.3# X10^5"}, {"measurement": "Final weight", "setting": "[4]; BEA 40 mg/kg", "value": "25.6 ± 1.7", "unit": "g"}, {"measurement": "IL-6/TNF-alpha", "setting": "[4]; BEA 40 mg/kg", "value": "12.7 ± 8.6"}, {"measurement": "IL-6 level", "setting": "[4]; BEA 40 mg/kg", "value": "370.8 ± 219.1", "unit": "pg/mL"}, {"measurement": "Spleen index", "setting": "[4]; BEA 40 mg/kg", "value": "6.4 ± 1.2", "unit": "mg/g"}, {"measurement": "TNFa level", "setting": "[4]; BEA 40 mg/kg", "value": "31.4 ± 15.1", "unit": "pg/mL"}, {"measurement": "The length of colon", "setting": "[4]; BEA 40 mg/kg", "value": "9.2 ± 0.8", "unit": "cm"}, {"measurement": "Thymus index", "setting": "[4]; BEA 40 mg/kg", "value": "3.1 ± 0.7", "unit": "mg/g"}, {"measurement": "Weight before fasting", "setting": "[4]; BEA 40 mg/kg", "value": "27.6 ± 1.7", "unit": "g"}, {"measurement": "number of animals with bloody stools", "setting": "[4]; BEA 40 mg/kg", "value": "6/12"}, {"measurement": "number of animals with fecal occult blood (3rd day)", "setting": "[4]; BEA 40 mg/kg", "value": "6/12"}, {"measurement": "White blood cell count", "setting": "[4]; BEA 40 mg/kg", "value": "5.9 ± 2.9 X10^9"}, {"measurement": "Macrohage cell count", "setting": "[4]; BEA 40 mg/kg", "value": "24.6 ± 3.4 X10^5"}, {"measurement": "reduction of M-Spike", "setting": "[5]", "value": 40, "unit": "%"}]}, {"smiles": "C[C@@H]1C[C@H]2[C@@H]3CCC4=CC(=O)C=C[C@]4(C)[C@@]3(F)[C@@H](O)C[C@]2(C)[C@@]1(O)C(=O)CO", "note": "[Dex, Dexamethasone, reference compound]", "values": [{"measurement": "IL-6/TNF-alpha", "setting": "[4]; Dexamethasone 0.1 mg/kg", "value": "15.8 ± 8.7"}, {"measurement": "IL-6 level", "setting": "[4]; Dexamethasone 0.1 mg/kg", "value": "791.7 ± 234.3", "unit": "pg/mL"}, {"measurement": "Spleen index", "setting": "[4]; Dexamethasone 0.1 mg/kg", "value": "7.9 ± 1.7", "unit": "mg/g"}, {"measurement": "TNFa level", "setting": "[4]; Dexamethasone 0.1 mg/kg", "value": "92.4 ± 42.1", "unit": "pg/mL"}, {"measurement": "The length of colon", "setting": "[4]; Dexamethasone 0.1 mg/kg", "value": "9.9 ± 1.2", "unit": "cm"}, {"measurement": "Thymus index", "setting": "[4]; Dexamethasone 0.1 mg/kg", "value": "0.9 ± 0.4", "unit": "mg/g"}, {"measurement": "number of animals with bloody stools", "setting": "[4]; Dexamethasone 0.1 mg/kg", "value": "8/12"}, {"measurement": "number of animals with fecal occult blood (3rd day)", "setting": "[4]; Dexamethasone 0.1 mg/kg", "value": "9/12"}, {"measurement": "White blood cell count", "setting": "[4]; Dexamethasone 0.1 mg/kg", "value": "5.0 ± 2.6# X10^9"}, {"measurement": "Macrohage cell count", "setting": "[4]; Dexamethasone 0.1 mg/kg", "value": "24.4 ± 5.7 X10^5"}]}]}
